These results are taken from patent publication US7026289B2, “Method and compositions for treating hyperlipidemia and other conditions” (Societe de Conseils de Recherches et d'Applications …, priority 1997, dated 2006).

Positions of bridges follow the written chain, without caps; N, C: chain ends. Non-standard residues stand in square brackets, D forms with d. Residues, ends and D or L forms follow the SMILES beside them.

Test [1] has as its system fatty (fa/fa) Zucker rats. Nature of the test: Reduction of glycerol and triglycerides, chronic treatment in obese rats. The following applies: for plasma glycerol / plasma triglycerides: 3 mg/kg s.c. twice a day, 6 days, vs saline. The test is classed as in vivo, rat. The text has this:
The obese (fa/fa) Zucker and its derivative in the Zucker diabetic fatty (ZDF/Drt-fa) are excellent models of diabetes-induced dyspilidemia (Shafrir, E., Diabetes/Metabolism Rev. 8:179–208 (1992); Peterson, R. G., et al., ILAR News 32:16–19 (1990)). The animals develop progressive hypertriglyceridemia and hypercholesterolemia.
Eleven male fatty Zucker rats weighing about 450 grams were randomly divided into 2 groups and their initial body wights recorded. The animals were housed in pairs in a normal 12 hour light/dark cycle at 20–21 C and fed a standard laboratory rat diet (Beekay rat and mouse diet, Bantin & Kingman, Hull, Humberside, U.K.) overnight ad libitum.
For the group assigned to receive drug treatment, the rats received BIM-23268C at 3 mg/kg, by subcutaneous injection twice a day at 10:00 a.m. and 5:00 p.m. The other group was treated with a subcutaneous injection of 0.1 ml/100 g of saline twice a day at 10:00 a.m. and 5:00 p.m. The animals were subjected to the BIM-23268 or saline treatment for a total of six days.
On the last day of treatment (day 6), food was removed at 5:00 p.m. and the rats fasted overnight. At 9:00 a.m. the next day, the animals were subjected to a glucose challenge, given as a 0.8 gram/kg of glucose orally. Periodic 400 ul of blood samples were taken from the tail vein (Peterson, R. G., ILAR News 32:16–19 (1990)) at 60 min. and 30 min. before, and at 30, 60, 90, and 120 min. after the administration of the glucose challenge (08. gram/kg orally). Aprotinin (Traysylol, Bayer UK, Hayward's Heath, W. Sussex, U.K.) and heparin (Sigma Chemical Co., Poole, Dorset, U.K.) were added to the blood samples to a final concentration of 400 KIU/ml and 100 units/ml, respectively. Plasma fractions were prepared from these samples by centrifugation at 400×G in a microfuge, for the estimation of triglycerides and glycerol. Samples were then stored at −80° C. until assayed.
Plasma glycerol and triglycerides were determined using the Sigma Enzymatic (Tinder) calorimetric assay kit (Cat #337-B, Sigma Chemical Co., Poole, Dorset, U.K.) and measuring absorbance at 540 nm in a spectrophotometer.

The target in the next test is T1, hSSTR-1 (Homo sapiens, UniProt P30872).
T1 construct: expressed in transfected cells
The test can be described thus: Somatostatin receptor binding assay, [125I-Tyr11] somatostatin-14, CHO-K1 membranes. The following applies: displacement of 0.05 nM [125I-Tyr11] somatostatin-14, transfected CHO-K1 membranes. The method, then:
Restriction endonucleases are available from New England Biolabs (Beverly, Mass.). […] Other mammalian expression vectors include pcDNA1/Amp (Invitrogen, Sandlesy, Calif.). The expression plasmids were introduced into the suitable bacterial host, E. Coli HB101 (Stratagene, La Jolla, Calif.) and plasmid DNAs, for transfection, were prepared on Cesium Chloride gradients.
CHO-K1 (ovary, Chinese hamster) cells were obtained from ATCC (ATCC No. CCL 61). The cells were grown and maintained in Ham's F12 media (Gibco BRL, Grand Island, N.Y.) supplemented with 10% fetal bovine serum under standard tissue culture conditions. […] DNA mediated transfection was carried out using the calcium phosphate co-precipitation method (Ausubel, F. M., et al., Current Protocols in Molecular Biology, John Wiley & Sons, 1987). The plasmid pRSV-neo (ATCC; ATCC No. 37198) was included as a selectable marker at 1/10 the concentration of the expression plasmid. CHO-K1 clonal cell lines that have stably inherited the transfected DNA were selected for growth in Ham's F12 media containing 10% fetal bovine serum and 0.5 mg/ml of G418 (Sigma). The cells were ring-cloned and expanded in the same media for analysis.
Transfected cell lines expressing the human SSTR receptors were clonally expanded in culture and used in the following SSTR binding protocol.
The resulting supernatant was decanted and discarded. […]

[2] abbreviates: samples 30 and 60 min before oral glucose challenge.
Where [3] appears, read: through the 2-hour test period after oral glucose challenge.

T1 sequence (P30872 whole entry): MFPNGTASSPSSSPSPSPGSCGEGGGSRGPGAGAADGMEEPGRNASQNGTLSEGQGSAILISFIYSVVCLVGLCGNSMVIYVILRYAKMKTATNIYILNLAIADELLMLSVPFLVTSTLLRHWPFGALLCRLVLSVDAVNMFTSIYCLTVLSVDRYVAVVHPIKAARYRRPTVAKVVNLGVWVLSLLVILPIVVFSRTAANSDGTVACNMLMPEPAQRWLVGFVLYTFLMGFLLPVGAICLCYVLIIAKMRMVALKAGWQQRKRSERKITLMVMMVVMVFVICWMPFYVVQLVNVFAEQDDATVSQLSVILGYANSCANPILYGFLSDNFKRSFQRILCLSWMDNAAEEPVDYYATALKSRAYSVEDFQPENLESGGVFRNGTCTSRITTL

Regarding `C[C@@H](O)[C@@H]1NC(=O)[C@H](CCCCN)NC(=O)[C@@H](Cc2c[nH]c3ccccc23)NC(=O)[C@H](Cc2ccccc2)NC(=O)[C@H](Cc2ccccc2)NC(=O)[C@@H](N)CSSC[C@@H](C(N)=O)NC(=O)[C@H](Cc2ccccc2)NC1=O` [BIM-23268, H-Cys-Phe-Phe-D-Trp-Lys-Thr-Phe-Cys-NH2] (H-CFF[dW]KTFC-NH2; disulfide 1-8), in test [1] (setting [2]), the plasma glycerol result is reported as “significantly lowered” and the plasma triglycerides entry is “significantly lowered”. Besides, in test [1] (setting [3]), the plasma glycerol entry is recorded as “significantly lower” and the plasma triglycerides entry was “significantly lower”. Moreover, the hypertriglyceridemia result in test [1] (6-day treatment period at the prescribed dose (3 mg/kg s.c. twice a day)) is on record as “effective in reducing hypertriglyceridemia”.
What is called Ki is the dissociation constant of the complex between target and ligand, obtained from inhibition or displacement. The low end stands for a stronger hold on the target, the high end for a looser hold on the target. Take `C[C@@H](O)[C@@H]1NC(=O)[C@H](CCCCN)NC(=O)[C@@H](Cc2c[nH]c3ccccc23)NC(=O)[C@H](Cc2ccc(O)c(I)c2)NC(=O)[C@H](Cc2ccccc2)NC(=O)[C@@H](N)CSSC[C@@H](C(N)=O)NC(=O)[C@H](Cc2ccccc2)NC1=O` [BIM-23313, H-Cys-Phe-Tyr(I)-D-Trp-Lys-Thr-Phe-Cys-NH2]: at hSSTR-1, the Ki is 151 nM.
